The text below walks through data of patent publication US20110300199A1, “PEPTIDES USED IN THE TREATMENT AND/OR CARE OF THE SKIN, MUCOUS MEMBRANES AND/OR SCALP AND THEIR USE IN COSMETIC OR PHARMACEUTICAL COMPOSITIONS” (LIPOTEC, S.A., priority 2009, published 2011).

pIC50: −log10 of the molar value. Non-standard residues stand in square brackets, D forms with d. Phg = N[C@H](C(=O)O)c1ccccc1

T2 sequence (P00772 27-266): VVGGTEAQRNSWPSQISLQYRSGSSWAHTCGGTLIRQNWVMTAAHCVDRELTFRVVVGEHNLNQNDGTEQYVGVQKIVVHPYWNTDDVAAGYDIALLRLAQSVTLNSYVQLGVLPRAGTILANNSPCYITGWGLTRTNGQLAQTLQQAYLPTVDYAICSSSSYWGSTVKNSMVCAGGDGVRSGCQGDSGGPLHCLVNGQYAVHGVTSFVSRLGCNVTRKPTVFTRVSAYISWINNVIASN

In the first assay the target is T1, Human neutrophil elastase (Homo sapiens, UniProt P08246).
T1 sequence (P08246 30-267): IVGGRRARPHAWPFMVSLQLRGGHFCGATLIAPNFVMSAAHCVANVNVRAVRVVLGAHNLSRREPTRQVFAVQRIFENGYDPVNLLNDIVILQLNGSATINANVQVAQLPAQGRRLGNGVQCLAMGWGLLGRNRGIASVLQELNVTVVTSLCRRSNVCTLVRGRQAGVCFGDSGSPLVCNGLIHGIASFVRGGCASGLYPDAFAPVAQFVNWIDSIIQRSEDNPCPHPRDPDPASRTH
Put plainly: Human elastase inhibition assay (fluorogenic substrate MeOSuc-Ala-Ala-Pro-Val aminomethyl coumarin). It counts as biochemical. Particulars: 0.2 μg/ml protease, peptides 0.05-2 mM, 1 hour preincubation, substrate 25 μg/mL, 2 h; read-out: IC50 (minimum inhibitory concentration of peptides against human elastase). Here is the method: Human neutrophil elastase was reconstituted at 5 μg/mL in 50 mM sodium acetate, 200 mm NaCl, pH 5.5 buffer. 0.2 μg/ml of protease were preincubated with the peptides at a final concentration of 0.05-2 mM in a black microplate with 96 wells for 1 hour at room temperature. After preincubation, 25 μg/mL of substrate (MeOSuc-Ala-Ala-Pro-Val aminomethyl coumarin) were added to the wells and the samples were incubated for 2 h at room temperature and protected from light. The fluorescence released by digestion of the substrate was measured with an automated multiplate fluorescence reader, exciting at 370 nm and reading at 460 nm.
The results were corrected from the baseline fluorescence value in the absence of elastase and product, and were normalized with respect to the fluorescence of the control, and the minimum inhibitory concentration for each of the peptides was determined.
H-L-Arg-Phg-L-Trp-Phg-OH: the pIC50 is 3.99.
H-L-Arg-Phg-L-Val-Gly-OH: the pIC50 was 3.39.
On the same count and under the same terms, then H-L-Arg-Phg-L-Val-Phg-OH, with 4.03.

The next assay concerns the target T2, elastase (Sus scrofa, UniProt P00772).
T2 construct: purchased Molecular Probes
In words: Elastase inhibition assay (EnzChek Elastase Assay Kit, DQ Elastin substrate). The class given is biochemical. Conditions: peptides at 0.1 mM, pre-incubated 1 hour with 0.4 unit/mL elastase; DQ Elastin 25 μg/mL, 2 h; normalized to baseline. Here is the method:
The peptides were resuspended in water in the presence of 0.5% DMSO. The assay was conducted on black microplates with 96 wells using the EnzChek® Elastase Assay Kit (Molecular Probes). For this purpose, the peptides were pre-incubated at 0.1 mM for 1 hour with 0.4 unit/mL of elastase at room temperature with moderate stirring, after which the conjugated substrate was added to fluorescein (DQ™ Elastin) at a final concentration of 25 μg/mL and reactions were incubated for 2 h at room temperature with stirring and protected from light. The substrate, whose fluorescence is inhibited, is digested by elastase to release fluorescent fragments which are monitored by fluorescence with a FLUOstar galaxy reader (BMG LabTechnologies) using 485 nm filters for excitation and 530 nm filters for emission.
Inhibition values were normalized with respect to baseline values of average inhibition.
With Ac-L-Arg-Phg-L-Trp-Phg-NH—(CH2)15—CH3, the “Elastase inhibition percentage (% inhibition)” value is 53.7%.
Same read-out and setting: then Ac-L-Arg-Phg-L-Trp-Phg-OH, with 90.3%; and Ac-L-Arg-Phg-L-Val-Phg-OH, with 82.3%.
Still for that read-out and setting: next, Ac-L-Nle-Phg-L-Trp-Gly-OH: 69.6%; Ac-L-Nle-Phg-L-Trp-Phg-OH: 90.0%.
On to Ac-L-Nle-Phg-L-Val-Gly-OH, for which the “Elastase inhibition percentage (% inhibition)” value came to 62.7%.
On to Ac-L-Nle-Phg-L-Val-Phg-OH, for which the “Elastase inhibition percentage (% inhibition)” value was 73.8%.
Ac-Phg-L-Trp-Phg-OH: the “Elastase inhibition percentage (% inhibition)” value amounted to 45.1%.
Same read-out and setting: next, Ac-Phg-Phg-L-Trp-Gly-OH: 65.0%; Ac-Phg-Phg-L-Trp-Phg-OH: 84.2%.
Consider Ac-Phg-Phg-L-Val-Phg-OH, for which the “Elastase inhibition percentage (% inhibition)” value turned out to be 76.1%.
The same measure, in the same setting: then Ac-R[Phg]VG-OH, with 81.4%; and Ac-R[Phg]WG-OH, with 66.9%.
Turning to Ac-[Phg][Phg]VG-OH, the “Elastase inhibition percentage (% inhibition)” value is listed as 64.2%.
Same read-out and setting: next, Palm-L-Arg-Phg-L-Trp-Phg-NH2: 57.1%.

The subject of another assay is Human dermal fibroblasts. Put plainly: Collagen synthesis stimulation assay (secreted Collagen Type I by ELISA). It counts as cell-based. Conditions: peptides at 15 μg/ml, 48 h, medium analysed by ELISA; normalized to vehicle negative control. Here is the method:
Human dermal fibroblasts were grown until confluence in MI06 medium supplemented with specific growth factors for fibroblasts. Then, they were strypsinized and seeded at 5×10^4 cells/well in 24-well plates. After 24 h of incubation at 37° C. in 5% CO2 atmosphere, fresh medium was added with scalar dilutions of the peptides at 15 μg/ml or with vehicle as negative control. Cells were incubated for 48 additional hours, after which medium was collected.
The analysis of the amount of secreted Collagen Type I was performed by means of an ELISA assay. Briefly, 96-well plated were coated with 50 μL per well of the previously collected medium and allowed to adsorb overnight at 4° C. in a humidified atmosphere. Then the plates were washed 3 times with PBS (+0.05% Tween-20) and blocked for 1 h with 3% BSA. After blocking, the plates were treated with an anti-Collagen Type I antibody (1:1000 in PBS, 0.05% Tween-20, 1% BSA) for 2 h. After this incubation, the secondary antibody (goat anti-mouse IgG-HRP antibody, Molecular Probes, 1:1000 in PBS, 0.05% Tween-20, 1% BSA) was added. Plates were incubated with […] substrate for 30 min and the reaction was stopped by adding 3 M H2SO4. Absorbance at 490 nm was read using a microplate reader and collagen concentration determined using a linear regression standard curve for Collagen Type I. Values were normalized in respect to the collagen values for the negative control experiment and the increase in the Collagen Type I was calculated for all the treatments.
For H-L-Arg-Phg-L-Trp-Phg-OH, the “Increase of Collagen Type I by treatment with the peptides” value was found to be 99%.
Same read-out and setting: then H-L-Arg-Phg-L-Val-Gly-OH, with 16%; and H-L-Arg-Phg-L-Val-Phg-OH, with 18%.
